In this test the target is human GlyT1c transporter (Homo sapiens (Human), UniProt P48067). The test is described as follows: Radioligand binding assay using recombinant CHO cell membranes expressing human GlyT1. The conditions noted are these: human GlyT1c-expressing CHO cell membranes; read-out: radioligand binding Kiapp. From the text:
2. Radioligand binding assays using recombinant CHO cell membranes expressing human GlyT1: […]

Structures can show the parent of a compound that is named as a salt.

human GlyT1c transporter, sequence (P48067 whole entry): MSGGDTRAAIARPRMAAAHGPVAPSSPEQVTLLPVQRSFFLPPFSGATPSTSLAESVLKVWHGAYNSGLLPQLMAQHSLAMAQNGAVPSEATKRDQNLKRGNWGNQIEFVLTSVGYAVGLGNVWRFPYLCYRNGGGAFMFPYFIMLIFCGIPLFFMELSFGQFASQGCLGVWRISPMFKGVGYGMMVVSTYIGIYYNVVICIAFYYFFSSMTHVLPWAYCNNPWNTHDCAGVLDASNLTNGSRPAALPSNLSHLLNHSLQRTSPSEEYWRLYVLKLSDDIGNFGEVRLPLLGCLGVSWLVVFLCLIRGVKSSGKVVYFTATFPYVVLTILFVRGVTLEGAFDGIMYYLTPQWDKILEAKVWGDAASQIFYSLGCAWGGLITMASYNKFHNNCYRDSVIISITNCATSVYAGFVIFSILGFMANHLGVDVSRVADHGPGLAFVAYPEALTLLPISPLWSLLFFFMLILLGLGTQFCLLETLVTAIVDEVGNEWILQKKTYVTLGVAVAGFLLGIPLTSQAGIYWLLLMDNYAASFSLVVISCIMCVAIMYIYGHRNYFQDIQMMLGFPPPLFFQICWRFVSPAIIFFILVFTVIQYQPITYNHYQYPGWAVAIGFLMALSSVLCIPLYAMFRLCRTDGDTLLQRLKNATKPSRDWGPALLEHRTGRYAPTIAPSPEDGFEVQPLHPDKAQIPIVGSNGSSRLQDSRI

Take `CNC1CCc2ccc(OCCNS(=O)(=O)CC3CC3)cc2C1Cc1cccc(Cl)c1` (stereo not shown) [Example 300, N-{2-[8-(3-Chloro-benzyl)-7-methylamino-5,6,7,8-tetrahydro-naphthalen-2-yloxy]-ethyl}-C-cyclopropyl-methanesulfonamide hydrochloride]: the Ki was at most 10 nM.

As to `Cn1cnc(S(=O)(=O)NCCOc2ccc3c(c2)C(Cc2ccc(Cl)c(Cl)c2)C(N)CC3)n1` (stereo not shown) [Example 104, 1-Methyl-1H-[1,2,4]triazole-3-sulfonic acid {2-[7-amino-8-(3,4-dichloro-benzyl)-5,6,7,8-tetrahydro-naphthalen-2-yloxy]-ethyl}-amide], the Ki was at most 1000 nM.

Turning to `NC1CCc2ccc(OCCNS(=O)(=O)CC3CC3)cc2C1Cc1cc(F)cc(Cl)c1` (stereo not shown) [Example 150, N-(2-{[7-Amino-8-(3-chloro-5-fluorobenzyl)-5,6,7,8-tetrahydronaphthalen-2-yl]oxy}ethyl)-1-cyclopropylmethanesulfonamide hydrochloride], the Ki is at most 10 nM.

In the case of `CCCS(=O)(=O)N(C)CCCc1ccc2c(c1)C(Cc1cccc(F)c1)C(N)CC2` (stereo not shown) [Example 227, N-{3-[7-Amino-8-(3-fluorobenzyl)-5,6,7,8-tetrahydronaphthalen-2-yl]propyl}-N-methylpropane-1-sulfonamide hydrochloride], the Ki was at most 100 nM.

For the compound `CCCS(=O)(=O)N(CCOc1ccc2c(c1)C(Cc1ccccc1)C(N)CC2)C1CC1` (stereo not shown) [Example 282, Propane-1-sulfonic acid [2-(7-amino-8-benzyl-5,6,7,8-tetrahydro-naphthalen-2-yloxy)ethyl]-cyclopropyl-amide hydrochloride], the Ki was at most 100 nM.

As to `CN(CCOc1ccc2c(c1)C(Cc1ccc(Cl)c(Cl)c1)C(N1CCCC1)CC2)S(=O)(=O)C1CCC1` (stereo not shown) [Example 94, Cyclobutanesulfonic acid {2-[8-(3,4-dichloro-benzyl)-7-pyrrolidin-1-yl-5,6,7,8-tetrahydronaphthalen-2-yloxy]-ethyl}-methyl-amide hydrochloride], the Ki is at most 100 nM.

In the case of `O=S(=O)(NCc1ccc2c(c1)C(Cc1ccccc1)C(N1CCOCC1)CC2)C1CCC1` (stereo not shown) [Example 261, N-{[8-Benzyl-7-(morpholin-4-yl)-5,6,7,8-tetrahydronaphthalen-2-yl]methyl}cyclobutanesulfonamide], the Ki is at most 1000 nM.

Take `NC1CCc2ccc(OCCNS(=O)(=O)C3CC3)cc2C1Cc1ccccc1` (stereo not shown) [Example 102, Cyclopropanesulfonic acid [2-(7-amino-8-benzyl-5,6,7,8-tetrahydro-naphthalen-2-yloxy)ethyl]-amide hydrochloride]: the Ki is at most 1000 nM.

Consider `Cn1ccc(S(=O)(=O)NCc2ccc3c(c2)C(Cc2ccccc2)C(N2CCC2)CC3)c1` (stereo not shown) [Example 251, N-{[7-(Azetidin-1-yl)-8-benzyl-5,6,7,8-tetrahydronaphthalen-2-yl]methyl}-1-methyl-1H-pyrrole-3-sulfonamide trifluoroacetate], for which the Ki was at most 100 nM.

As for `CCNC1CCc2ccc(CNS(=O)(=O)c3cnn(C)c3)cc2C1Cc1cccc(F)c1` (stereo not shown) [Example 200, 1-Methyl-1H-pyrazole-4-sulfonic acid [7-ethylamino-8-(3-fluoro-benzyl)-5,6,7,8-tetrahydronaphthalen-2-ylmethyl]-amide hydrochloride], the Ki is at most 100 nM.

As for `Cc1cccc(S(=O)(=O)NCc2ccc3c(c2)C(Cc2ccccc2)C(N)CC3)c1` (stereo not shown) [Example 179, N-{[7-Amino-8-benzyl-5,6,7,8-tetrahydronaphthalen-2-yl]methyl}-3-methylbenzenesulfonamide hydrochloride], the Ki was at most 1000 nM.

Turning to `CN(CCOc1ccc2c(c1)C(Cc1cccc(Cl)c1)C(N)CC2)S(=O)(=O)CC1CC1` (stereo not shown) [Example 291, N-{2-[7-Amino-8-(3-chloro-benzyl)-5,6,7,8-tetrahydro-naphthalen-2-yloxy]-ethyl}-C-cyclopropyl-N-methyl-methanesulfonamide], the Ki was at most 10 nM.

Regarding `CCOC(=O)NC1CCc2ccc(OCCNS(=O)(=O)c3ccn(C)c3)cc2C1Cc1cc(F)cc(F)c1` (stereo not shown) [Example 236, Ethyl[1-(3,5-difluorobenzyl)-7-(2-{[(1-methyl-1H-pyrrol-3-yl)sulfonyl]amino}ethoxy)-1,2,3,4-tetrahydronaphthalen-2-yl]carbamate], the Ki was at most 1000 nM.

With `Cn1cnc(S(=O)(=O)NCCOc2ccc3c(c2)C(Cc2cccc(C#N)c2)C(N2CCCC2)CC3)c1` (stereo not shown) [Example 153, N-(2-{[8-(3-Cyanobenzyl)-7-(pyrrolidin-1-yl)-5,6,7,8-tetrahydronaphthalen-2-yl]oxy}ethyl)-1-methyl-1H-imidazole-4-sulfonamide], the Ki is at most 100 nM.

Consider `CCCS(=O)(=O)N(C)CCCc1ccc2c(c1)C(Cc1ccc(F)cc1)C(N)CC2` (stereo not shown) [Example 232, N-{3-[7-Amino-8-(4-fluorobenzyl)-5,6,7,8-tetrahydronaphthalen-2-yl]propyl}-N-methylpropane-1-sulfonamide hydrochloride], for which the Ki is at most 100 nM.

Take `Cn1cc(S(=O)(=O)NCc2ccc3c(c2)C(Cc2cccc(F)c2)C(N)CC3)cn1` (stereo not shown) [Example 178, N-{[7-Amino-8-(3-fluorobenzyl)-5,6,7,8-tetrahydronaphthalen-2-yl]methyl}-1-methyl-1H-pyrazole-4-sulfonamide hydrochloride]: the Ki was at most 10 nM.

As to `NC1CCc2ccc(OCCNS(=O)(=O)CC3CC3)cc2C1Cc1ccccc1` (stereo not shown) [Example 121, N-(2-{[7-Amino-8-benzyl-5,6,7,8-tetrahydronaphthalen-2-yl]oxy}ethyl)-1-cyclopropylmethanesulfonamide hydrochloride], the Ki is at most 10 nM.

On to `O=S(=O)(CC1CC1)NCCOc1ccc2c(c1)C(Cc1ccccc1)C(N1CCC(F)C1)CC2` (stereo not shown) [Example 136, N-[2-({8-Benzyl-7-[3-fluoropyrrolidin-1-yl]-5,6,7,8-tetrahydronaphthalen-2-yl}oxy)ethyl]-1-cyclopropylmethanesulfonamide hydrochloride], for which the Ki was at most 100 nM.

Take `C[Si](C)(C)CCS(=O)(=O)NCCOc1ccc2c(c1)C(Cc1ccc(Cl)c(Cl)c1)C(N)CC2` (stereo not shown) [Example 86, 2-Trimethylsilanyl-ethanesulfonic acid {2-[7-amino-8-(3,4-dichloro-benzyl)-5,6,7,8-tetrahydro-naphthalen-2-yloxy]-ethyl}-amide hydrochloride]: the Ki was at most 10000 nM.

With `CNC1CCc2ccc(CNS(=O)(=O)c3ccn(C)c3)cc2C1Cc1ccccc1` (stereo not shown) [Example 190, N-{[8-Benzyl-7-(methylamino)-5,6,7,8-tetrahydronaphthalen-2-yl]methyl}-1-methyl-1H-pyrrole-3-sulfonamide hydrochloride], the Ki was at most 10 nM.

Turning to `Cn1cnc(S(=O)(=O)NCc2ccc3c(c2)C(Cc2ccccc2)C(N2CCCC2)CC3)c1` (stereo not shown) [Example 262, N-{[8-Benzyl-7-(pyrrolidin-1-yl)-5,6,7,8-tetrahydronaphthalen-2-yl]methyl}-1-methyl-1H-imidazole-4-sulfonamide], the Ki was at most 100 nM.

Regarding `CCCS(=O)(=O)NCCCc1ccc2c(c1)C(Cc1ccccc1)C(NC(C)C)CC2` (stereo not shown) [Example 273, N-{3-[8-Benzyl-7-(propan-2-ylamino)-5,6,7,8-tetrahydronaphthalen-2-yl]propyl}propane-1-sulfonamide hydrochloride], the Ki is at most 1000 nM.

Consider `NC1CCc2ccc(CCCNS(=O)(=O)CC3CC3)cc2C1Cc1ccccc1` (stereo not shown) [Example 207, N-{3-[7-Amino-8-benzyl-5,6,7,8-tetrahydronaphthalen-2-yl]propyl}-1-cyclopropylmethanesulfonamide trifluoroacetate], for which the Ki was at most 100 nM.

As for `CNC1CCc2ccc(CNS(=O)(=O)c3cccc(C)c3)cc2C1Cc1ccccc1` (stereo not shown) [Example 189, N-{[8-Benzyl-7-(methylamino)-5,6,7,8-tetrahydronaphthalen-2-yl]methyl}-3-methylbenzenesulfonamide hydrochloride], the Ki was at most 10000 nM.

On to `CCCS(=O)(=O)NCCOc1ccc2c(c1)C(CC1CCCCC1)C(NC)CC2` (stereo not shown) [Example 314, Propane-1-sulfonic acid [2-(8-cyclohexylmethyl-7-methylamino-5,6,7,8-tetrahydronaphthalen-2-yloxy)-ethyl]-amide trifluoroacetate], for which the Ki was at most 1000 nM.

On to `Cn1cnc(S(=O)(=O)NCc2ccc3c(c2)C(Cc2ccccc2)C(N2CCC2)CC3)c1` (stereo not shown) [Example 248, N-{[7-(Azetidin-1-yl)-8-benzyl-5,6,7,8-tetrahydronaphthalen-2-yl]methyl}-1-methyl-1H-imidazole-4-sulfonamide], for which the Ki was at most 10 nM.

For the compound `CCCS(=O)(=O)NCCOc1ccc2c(c1)C(Cc1ccccc1Cl)C(N)CC2` (stereo not shown) [Example 293, Propane-1-sulfonic acid {2-[7-amino-8-(2-chloro-benzyl)-5,6,7,8-tetrahydro-naphthalen-2-yloxy]-ethyl}-amide hydrochloride], the Ki was at most 1000 nM.

Turning to `Cn1ccc(S(=O)(=O)NCc2ccc3c(c2)C(Cc2ccccc2)C(N)CC3)c1` (stereo not shown) [Example 180, N-{[7-Amino-8-benzyl-5,6,7,8-tetrahydronaphthalen-2-yl]methyl}-1-methyl-1H-pyrrole-3-sulfonamide hydrochloride], the Ki is at most 10 nM.

Turning to `NC1CCc2ccc(CNS(=O)(=O)C3CCC3)cc2C1Cc1ccc(F)cc1` (stereo not shown) [Example 174, N-{[7-Amino-8-(4-fluorobenzyl)-5,6,7,8-tetrahydronaphthalen-2-yl]methyl}cyclobutanesulfonamide hydrochloride], the Ki is at most 1000 nM.

Regarding `CNC1CCc2ccc(OCCNS(=O)(=O)c3cnn(C)c3)cc2C1Cc1ccccc1Cl` (stereo not shown) [Example 302, 1-Methyl-1H-pyrazole-4-sulfonic acid {2-[8-(2-chloro-benzyl)-7-methylamino-5,6,7,8-tetrahydro-naphthalen-2-yloxy]-ethyl}-amide hydrochloride], the Ki is at most 100 nM.

Consider `CCCS(=O)(=O)NCCCc1ccc2c(c1)C(Cc1ccc(F)c(F)c1)C(N)CC2` (stereo not shown) [Example 206, N-{3-[7-Amino-8-(3,4-difluoro-benzyl)-5,6,7,8-tetrahydronaphthalen-2-yl]propyl}propane-1-sulfonamide hydrochloride], for which the Ki is at most 100 nM.

The values above are taken from patent US9067871B2, “Aminotetraline derivatives, pharmaceutical compositions containing them, and their use in therapy” (ABBVIE DEUTSCHLAND GMBH & CO KG, priority 2009, dated 2015).
